Measured values: patent US20260193265A1, “Phyllochlorin analogues suitable for use in photodynamic therapy (PDT)” (RMW CHO Group Limited, priority 2022, published 2026)
Where a name gives a salt, the structure may show the parent alone. Read-outs that look alike come from different tables or passages of the source.

What was measured:
[1] = system: Human ovarian cancer cell line SKOV3
[2] = system: Human ovarian cancer cell line SKOV3; assay: Phototoxicity in SKOV3 cells after 652 nm laser activation (AlamarBlue viability); assay type: cell-based; settings: for range of phototoxicity IC90 values in vitro: result in words
Protocol: Samples were stored at 4° C. protected from light.
All data are shown as mean±SD (where appropriate).
To test for phototoxicity, cells incubated with phyllochlorin analogues (0-10 μM in DMSO) had culture media replaced after 24 hours (as above) and were then exposed to a 652 nm laser (Invion) with laser density at 50 mW/cm^2 for 5 mins (total 15 J/cm^2). Following activation, cells were cultured for a further 24 hours. Media was then replaced with fresh media containing AlamarBlue, and % viable cells remaining assessed as above. Controls included cells treated with phyllochlorin analogues but not activated by laser light; cells without phyllochlorin analogue treatment but with laser light; and untreated controls. All measurements were made in quadruplicate.

[3] = system: Human ovarian cancer cell line SKOV3; assay: Inherent cytotoxicity (dark toxicity) in SKOV3 cells (AlamarBlue viability); settings: 24 hours incubation, no light, AlamarBlue 6 hours
Protocol: Photosensitizers (e.g. phyllochlorin analogue, chlorin e4 disodium (provided by Advanced Molecular Technologies, Scoresby) or Talaporfin sodium (purchased from Focus Bioscience cat #HY-16477-5MG)) were resuspended in 100% dimethylsulfoxide (DMSO) at a concentration of 5.5 mM. Samples were stored at 4° C. protected from light.
For in vitro experiments, photosensitizers (stock solution 5.5 mM in 100% DMSO) were diluted 1:100 in concentrated excipient solution (final 55 μM photosensitizer in 10% w/v Kollidon-12, 42.4% w/v polysorbate 80, 0.6% w/v citric acid anhydrous, 40% w/v ethanol, 1.0% DMSO). Serial dilutions were prepared in cell culture media (Dulbecco's Modified Eagle Medium/Nutrient Mixture F-12 (DMEM/F-12)) supplemented with 10% v/v Fetal Bovine Serum, 100 U/mL penicillin, 100 μg/mL streptomycin and the same excipient solution at a constant 1:55 dilution.
Human ovarian cancer cell line SKOV3 (ATCC #HTB-77) was maintained in Dulbecco's Modified Eagle Medium/Nutrient Mixture F-12 (DMEM/F-12), supplemented with 10% v/v Fetal Bovine Serum, 100 U/mL penicillin and 100 μg/mL streptomycin. Monolayer cultures were grown in a humidified incubator at 37° C. with 5% CO2. Once cells had reached ~80% confluence, spent media was replaced with media containing photosensitizer at the required concentration and cells were incubated for the desired period of time to allow photosensitizer uptake.
All data were analysed using GraphPad PRISM v8.3.1 (549) (GraphPad Software, CA). Spectral absorbance and viability measurements were normalized in the range 0-100%, with a minimum of 0 and a maximum value determined from the dataset. Dose response was determined using a sigmoidal four-point non-linear regression with variable slope, and IC10 or IC90 calculated for each compound. All data are shown as mean±SD (where appropriate).
SKOV3 cells were seeded in 96-well black wall plates (Greiner #655090) at a cell density of 5000 cells in 100 μl culture medium per well. On reaching ~60% confluence, media was aspirated and replaced with fresh media containing the relevant phyllochlorin analogue from 0-100 μM in DMSO. Cells were incubated for a further 24 hours, allowing uptake of phyllochlorin analogues.
To test for inherent cytotoxicity (i.e. “dark toxicity”) of the phyllochlorin analogues, the culture media was replaced after 24 hours with fresh media containing 10% (v/v) AlamarBlue Cell Viability Reagent (ThermoFisher) and cells incubated at 37° C. for 6 hours. Untreated cells were used as a control. Fluorescence (Ex 555 nm/Em 596 nm) was measured using a Cytation 3 Cell Imaging Multi-Mode Reader (Biotek), and cytotoxicity assessed according to the % viable cells remaining. All measurements were made in quadruplicate.
The phototoxicity and inherent cytotoxicity (i.e. “dark toxicity”) of several phyllochlorin analogues were assessed as previously using SKOV3 ovarian cancer cells. For comparative purposes, phyllochlorin analogues were compared against chlorin e4 disodium and Talaporfin sodium, a clinically approved photosensitizer used in the photodynamic treatment of lung cancers. Phototoxicity IC90 values and dark toxicity IC10 values were calculated using a log[inhibitor]-vs normalized response dose curve with variable slope, using the formula Y=100/(1+(IC90/X)^HillSlope (phototoxicity IC90)) or Y=100/(1+(IC10/X)^HillSlope (dark toxicity IC10)).

[4] = Homo sapiens, SK-OV-3, light or radiation study, 652 nm laser, read-out: apparent phototoxicity IC90
[5] = Homo sapiens, SK-OV-3, light or radiation study, 24 hours uptake, 652 nm laser 50 mW/cm^2 for 5 mins (total 15 J/cm^2), viability 24 hours after activation, read-out: Phototoxicity μM (IC90)

For `C=Cc1c(C)c2cc3nc(c(C)c4[nH]c(cc5nc(cc1[nH]2)C(C)=C5CC)c(C)c4C(=O)O)[C@@H](CCC(=O)O)[C@@H]3C` [Chlorin e4 disodium, reference compound], the “Dark toxicity μM (IC10)” value [1] was 40.23 µM, the IC90 ([2]; 24 hours uptake, 652 nm laser 50 mW/cm^2 for 5 mins (total 15 J/cm^2), viability 24 hours after activation, read-out: Phototoxicity μM (IC90)) was 21.3 µM and the “range of phototoxicity IC90 values in vitro” value [2] was “μM range”.

For `C=Cc1c(C)c2cc3nc(c(C)c4cc(C)c(cc5nc(cc1[nH]2)C(C)=C5CC)[nH]4)[C@@H](CCCS[C@@H]1O[C@H](CO)[C@@H](O)[C@H](O)[C@H]1O)[C@@H]3C` [Compound 5], the “Dark toxicity μM (IC10)” value ([1]; human, 24 h) was 13.18 µM, the IC90 [2, 4] was less than 0.1 µM and the IC90 [2, 5] was 0.05 µM.

`C=Cc1c(C)c2cc3nc(c(CC(=O)N[C@@H](CC(=O)O)C(=O)O)c4[nH]c(cc5nc(cc1[nH]2)C(C)=C5CC)c(C)c4C(=O)O)[C@@H](CCC(=O)O)[C@@H]3C` [Talaporfin sodium, reference compound] was tested, and the “Dark toxicity μM (IC10)” value ([1]; human, 24 h) was 11.10 µM and the “range of phototoxicity IC90 values in vitro” value [2] was “μM range”.

`C=Cc1c(C)c2cc3nc(c(C)c4cc(C)c(cc5nc(cc1[nH]2)C(C)=C5CC)[nH]4)[C@@H](CCCOC(C)=O)[C@@H]3C` [Compound 2, 3-((7S,8S)-18-ethyl-2,5,8,12,17-pentamethyl-13-vinyl-7H,8H-porphyrin-7-yl)propyl acetate] was tested, and the “Dark toxicity μM (IC10)” value ([1]; human, 24 h) was 66.93 µM and the IC90 [2, 5] was 0.48 µM.

`C=Cc1c(C)c2cc3nc(c(C)c4cc(C)c(cc5nc(cc1[nH]2)C(C)=C5CC)[nH]4)[C@@H](CCC[n+]1ccccc1)[C@@H]3C` [Compound 9, phyllochlorin 3-pyridiniumpropyl iodide] was tested, and the IC90 [2, 5] was 0.006 µM and the “Dark toxicity μM (IC10)” value [3] was 4.91 µM.

In the case of `C=Cc1c(C)c2cc3nc(c(C)c4cc(C)c(cc5nc(cc1[nH]2)C(C)=C5CC)[nH]4)[C@@H](CCCNC(=O)[C@@H](N)C(C)C)[C@@H]3C` [Compound 8, phyllochlorin 3-aminopropyl-valine amide hydrochloride], the “Dark toxicity μM (IC10)” value ([1]; human, 24 h) is reported as 11.89 µM, the IC90 [2, 4] is reported as less than 0.1 µM and the IC90 [2, 5] is reported as 0.09 µM.

In the case of `C=Cc1c(C)c2cc3nc(c(C)c4cc(C)c(cc5nc(cc1[nH]2)C(C)=C5CC)[nH]4)[C@@H](CCCO)[C@@H]3C` [Compound 1, 3-((7S,8S)-18-ethyl-2,5,8,12,17-pentamethyl-13-vinyl-7H,8H-porphyrin-7-yl)propan-1-ol], the “Dark toxicity μM (IC10)” value ([1]; human, 24 h) is reported as 46.10 µM and the IC90 [2, 5] is reported as 0.12 µM.

`C=Cc1c(C)c2cc3nc(c(C)c4cc(C)c(cc5nc(cc1[nH]2)C(C)=C5CC)[nH]4)[C@@H](CCCSCCCS[C@@H]1O[C@H](CO)[C@@H](O)[C@H](O)[C@H]1O)[C@@H]3C` [Compound 4, (2S,3R,4S,5S,6R)-2-((3-((3-((7S,8S)-18-ethyl-2,5,8,12,17-pentamethyl-13-vinyl-7H,8H-porphyrin-7-yl)propyl)thio)propyl)thio)-6-(hydroxymethyl)tetrahydro-2H-pyran-3,4,5-triol] was tested, and the “Dark toxicity μM (IC10)” value ([1]; human, 24 h) was 23.13 µM, the IC90 [2, 4] was less than 0.1 µM and the IC90 [2, 5] was 0.07 µM.

`C=Cc1c(C)c2cc3nc(c(C)c4cc(C)c(cc5nc(cc1[nH]2)C(C)=C5CC)[nH]4)[C@@H](CCCN)[C@@H]3C` [Compound 7, phyllochlorin 3-aminopropyl] was tested, and the “Dark toxicity μM (IC10)” value ([1]; human, 24 h) was 11.55 µM, the IC90 [2, 4] was less than 0.1 µM and the IC90 [2, 5] was 0.05 µM.

In the case of `C=Cc1c(C)c2cc3nc(c(C)c4cc(C)c(cc5nc(cc1[nH]2)C(C)=C5CC)[nH]4)[C@@H](CCC[P+](c1ccccc1)(c1ccccc1)c1ccccc1)[C@@H]3C` [Compound 10, phyllochlorin 3-triphenylphosphoniumpropyl iodide], the IC90 [2, 5] is reported as 0.003 µM and the “Dark toxicity μM (IC10)” value [3] is reported as 4.52 µM.
